The numbers were not newly measured in patent publication US10156556B2, “Method for determining ecological risks of polycyclic aromatic hydrocarbon in water body” (priority 2013, dated 2018), which cites them from elsewhere.

For the series the following is noted: relative to benzoapyrene; Nisbet and Lagoy 1992; cited from earlier work.

As for `c1ccc2c(c1)-c1cccc3cccc-2c13` [Flu], the Toxic equivalency factor is reported as 0.001.
